Experimental data taken from paper PMC6750098, “Mechanism of DNA Lesion Homing and Recognition by the Uvr Nucleotide Excision Repair System” (Research, 2019).

What was measured:
[1] = molecular target: T1, UvrB (Δ594-658, domains 1a-3) ([Bacillus] caldotenax, UniProt P56981, C145S/C211S/T251C/C303S); test: X-ray crystal structure (UvrB-dsDNA-ADP·Pi); settings: crystals grown with 2 mM ATP and 5 mM MgCl2, pH 6.5, 20 °C; protein disulfide-crosslinked to 20-mer dsDNA; ATP binding site; 2.6 Å
T1 construct: residues 1-593 (domain 4 deleted, Δ594-658), all native Cys to Ser, His-tag cleaved with TEV protease, expressed in E. coli BL21(DE3) pLysS, disulfide-crosslinked to duplex DNA

[2] = molecular target: T1, UvrB (Δ594-658, domains 1a-3); test: ATP hydrolysis in crystallo, seen in crystal structure; assay type: biochemical; settings: 2 mM ATP, 5 mM MgCl2, pH 6.5, 20 °C; protein disulfide-crosslinked to 20-mer dsDNA

T1 sequence (P56981 1-593 C145S/C211S/T251C/C303S): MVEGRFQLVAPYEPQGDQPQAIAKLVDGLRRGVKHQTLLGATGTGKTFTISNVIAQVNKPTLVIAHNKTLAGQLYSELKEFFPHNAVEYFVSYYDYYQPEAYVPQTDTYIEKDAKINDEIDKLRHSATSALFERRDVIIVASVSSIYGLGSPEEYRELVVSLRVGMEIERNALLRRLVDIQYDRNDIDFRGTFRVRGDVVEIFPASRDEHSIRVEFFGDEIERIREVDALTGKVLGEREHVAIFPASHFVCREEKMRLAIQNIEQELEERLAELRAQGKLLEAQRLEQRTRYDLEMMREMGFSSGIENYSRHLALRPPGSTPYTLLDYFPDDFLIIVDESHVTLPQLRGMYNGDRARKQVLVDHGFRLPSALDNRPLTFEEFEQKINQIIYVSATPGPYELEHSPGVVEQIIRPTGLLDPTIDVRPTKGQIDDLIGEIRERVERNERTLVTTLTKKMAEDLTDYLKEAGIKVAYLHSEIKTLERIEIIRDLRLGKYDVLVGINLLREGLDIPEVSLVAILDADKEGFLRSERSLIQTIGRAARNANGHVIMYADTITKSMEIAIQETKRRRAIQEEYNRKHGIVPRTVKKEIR

Nc1ncnc2c1ncn2[C@@H]1O[C@H](COP(=O)(O)OP(=O)(O)O)[C@@H](O)[C@H]1O [ADP]
X-ray crystal structure (UvrB-dsDNA-ADP.Pi) [1]: the electron density corresponds to ADP plus inorganic phosphate

Nc1ncnc2c1ncn2[C@@H]1O[C@H](COP(=O)(O)OP(=O)(O)OP(=O)(O)O)[C@@H](O)[C@H]1O [ATP]
ATP hydrolysis in crystallo, seen in crystal structure [2]: hence we conclude that the ATPase site retains activity in our crosslinked complex
